Test results from patent US7652015B2, “Kinase inhibitors” (Eli Lilly and Company, priority 2006, dated 2010).
Where a name gives a salt, the structure may show the parent alone.

Each molecule was assayed on p-MAPKAPK2 (assay: Inhibition of p-MAPKAPK2 in vitro, anisomycin-stimulated RAW 264.7 cells, ELISA). Details: Mus musculus, RAW264.7; RAW 264.7 cells, 2 hours compound, anisomicin 100 ug/ml 30 minutes; read-out: IC50, inhibition of p-MAPKAPK2 in vitro.
Type: cell-based, murine
Method: RAW 264.7 cells (a murine monocytic/macrophage line ATCC) are seeded at a density of 50,000 cells/well in 96-well plates with RPMI-1640 medium plus 10% fetal bovine serum (FBS) and allowed to settle and adhere to the bottom of the well for 48 hours. After reaching confluence, cells are treated for 2 hours with 10 serial dilutions of different compounds. A control compound is always included. After 2 hours, anisomicin (100 ug/ml) is added and cells are incubated for 30 minutes at 37° C. under a 5% CO2 atmosphere. Then, cells are fixed and treated with hydrogen peroxide in order to remove endogenous peroxidase. Finally, plates are blocked with FBS, washed, and an ELISA assay is carried out by using an antiphospho-MAPKAPK (Thr 334, Cell Signalling, Cat # 3041) antibody and ahP-Conjugated Secondary Antibody. This reaction is detected by using FEMTO (Pierce) which is an enhanced chemiluminiscent substrate ahP that results in rapid kinetic light output and high signal intensity.

IC50 [nM]	SMILES
6.7	Cc1ccc(-n2nc(C(C)(C)C)cc2NC(=O)Nc2ccc(N3CCN(C(=O)c4c(Cl)cccc4Cl)CC3)nc2C)cc1 [Example 45, 1-(5-tert-Butyl-2-p-tolyl-2H-pyrazol-3-yl)-3-{6-[4-(2,6-dichloro-benzoyl)-piperazin-1-yl]-2-methyl-pyridin-3-yl}-urea methanesulfonate]
176	Cc1ccc(-n2nc(C(C)(C)C)cc2NC(=O)Nc2ccc(OC3CCN(C(=O)C4(C)CC4)CC3)nc2C)cc1 [Example 77, 1-(5-tert-Butyl-2-p-tolyl-2H-pyrazol-3-yl)-3-{2-methyl-6-[1-(1-methyl-cyclopropanecarbonyl)-piperidin-4-yloxy]-pyridin-3-yl}-urea]
16	Cc1ccc(-n2nc(C(C)(C)C)cc2NC(=O)Nc2ccc(OC3CCN(C(=O)c4ccc(Cl)s4)CC3)nc2)cc1 [Example 92, 1-(5-tert-Butyl-2-p-tolyl-2H-pyrazol-3-yl)-3-{6-[1-(5-chloro-thiophene-2-carbonyl)-piperidin-4-yloxy]-pyridin-3-yl}-urea]
286	Cc1ccc(-n2nc(C(C)(C)C)cc2NC(=O)Nc2cnc(N3CCN(C(=O)C4(C)CC4)CC3)cc2C)cc1 [Example 128, 1-(5-tert-Butyl-2-p-tolyl-2H-pyrazol-3-yl)-3-{4-methyl-6-[4-(1-methyl-cyclopropanecarbonyl)-piperazin-1-yl]-pyridin-3-yl}-urea mesylate]

What follows are molecules tested on p-MAPKAPK2 in the same assay as above. Details: Mus musculus, RAW264.7, in the presence of 100% serum.
Type: cell-based, murine

SMILES	IC50 [nM]
Cc1ccc(-n2nc(C(C)(C)C)cc2NC(=O)Nc2ccc(N3CCN(C(=O)c4ccccc4Cl)CC3)nc2C)cn1 [Example 111, 1-[5-tert-Butyl-2-(6-methyl-pyridin-3-yl)-2H-pyrazol-3-yl]-3-{6-[4-(2-chloro-benzoyl)-piperazin-1-yl]-2-methyl-pyridin-3-yl}-urea mesylate]	≤ 500
Cc1ccc(-n2nc(C3(C(F)(F)F)CC3)cc2NC(=O)Nc2ccc(N3CCN(C(=O)c4sccc4C)CC3)nc2C)cn1 [Example 113, 1-{2-Methyl-6-[4-(3-methyl-thiophene-2-carbonyl)-piperazin-1-yl]-pyridin-3-yl}-3-[2-(6-methyl-pyridin-3-yl)-5-(1-trifluoromethyl-cyclopropyl)-2H-pyrazol-3-yl]-urea mesylate]	≤ 500
Cc1ccc(-n2nc(C3(C(F)(F)F)CC3)cc2NC(=O)Nc2ccc(N3CCN(C(=O)c4ccccc4Cl)CC3)nc2C)cn1 [Example 114, 1-{6-[4-(2-Chloro-benzoyl)-piperazin-1-yl]-2-methyl-pyridin-3-yl}-3-[2-(6-methyl-pyridin-3-yl)-5-(1-trifluoromethyl-cyclopropyl)-2H-pyrazol-3-yl]-urea mesylate]	≤ 500

Now from value to molecule:

IC50 [nM]	SMILES
≤ 500	Cc1ccc(-n2nc(C3(C(F)(F)F)CC3)cc2NC(=O)Nc2ccc(N3CCN(C(=O)c4ccccc4F)CC3)nc2C)cn1 [Example 115, 1-{6-[4-(2-Fluoro-benzoyl)-piperazin-1-yl]-2-methyl-pyridin-3-yl}-3-[2-(6-methyl-pyridin-3-yl)-5-(1-trifluoromethyl-cyclopropyl)-2H-pyrazol-3-yl]-urea mesylate]
≤ 500	Cc1ccc(-n2nc(C(C)(CF)CF)cc2NC(=O)Nc2ccc(N3CCN(C(=O)c4ccccc4C)CC3)nc2C)cc1 [Example 119, 1-[5-(2-Fluoro-1-fluoromethyl-1-methyl-ethyl)-2-p-tolyl-2H-pyrazol-3-yl]-3-{2-methyl-6-[4-(2-methyl-benzoyl)-piperazin-1-yl]-pyridin-3-yl}-urea]
